{
  "source": "patent US20110275602A1",
  "about": "“PHARMACEUTICAL ASSOCIATION, COMPOSITIONS FOR TOPICAL USE, FORMS OF DOSAGE AND METHOD OF TREATMENT OF ACUTE OR CHRONIC OTITIS IN PET ANIMALS” (priority 2007, published 2011)",
  "origin": "cited, not measured here",
  "system": "acute external otitis",
  "settings": "humans; literature",
  "data": [
    {"smiles": "O=C(O)c1cn(C2CC2)c2cc(N3CCNCC3)c(F)cc2c1=O", "note": "[ciprofloxacin]", "values": [
      {"measurement": "efficacy for the treatment of acute external otitis", "result": 77, "unit": "%"}
    ]}
  ]
}
